In PMC5735092 (Scientific Reports, 2017):

Assays:
IMPα/β1:C = IMPα/β1:C (Mus musculus, UniProt P52293); assay type: binding
[1] = test system: C-GFP nuclear accumulation in HeLa cells; assay type: cell-based
[2] = test system: C-GFP nuclear import in HeLa cells; assay type: cell-based
[3] = test system: GFP-T-ag nuclear accumulation in HeLa cells; assay type: cell-based
VEEV-TC83luc = assay type: cell-based, Venezuelan equine encephalitis virus
[4] = test system: VEEV C localization in infected Vero cells; assay type: cell-based
[5] = test system: IMPα/β1 binding to HIV-1 integrase; conditions: cited from earlier work
TC83-WT = assay type: cell-based, Venezuelan equine encephalitis virus
VEEV = conditions: cited from earlier work
HIV-1 = conditions: cited from earlier work

Compound | IC50 (IMPα/β1:C) | nuclear accumulation of C-GFP [1] | initial rate of C nuclear import [2] | maximal recovery of nuclear fluorescence (Fn(rec) max), lower than in DMSO alone treated cells [2] | CC50 (Vero cells) | nuclear accumulation of GFP-T-ag [3] | EC50 (VEEV-TC83luc) | nuclear C staining in infected cells [4] | inhibition of IMPα/β1 binding to HIV-1 integrase [5] | titer of wild-type TC83 (TC83-WT) | activity against VEEV (VEEV) | anti-HIV-1 activity (HIV-1)
O=C(c1cc(C(=O)N2CCN(c3cccc(Cl)c3)CC2)cc(C(=O)N2CCN(c3cccc(Cl)c3)CC2)c1)N1CCN(c2cccc(Cl)c2)CC1 [AK-968/15362127] | 32 ± 4.6 µM | – | – | – | – | – | – | – | – | – | – | –
CC(=O)Nc1ccc(S(=O)(=O)Nc2ccc(C3(c4ccc(NS(=O)(=O)c5ccc(NC(C)=O)cc5)cc4)c4ccccc4-c4ccccc43)cc2)cc1 [AN-329/40863801] | – | no significant effect | significantly reduced | ~30% | > 100 µM | no significant effect | > 50 µM | – | – | – | – | –
CC#C[C@]1(O)CC[C@H]2[C@@H]3CCC4=CC(=O)CCC4=C3[C@@H](c3ccc(N(C)C)cc3)C[C@@]21C [Mifepristone] | – | – | – | – | – | – | – | reduced nuclear C staining | inhibitors of IMPα/β1 binding to HIV-1 integrase | significantly reduced the titer | active against VEEV | anti-HIV-1 activity
Ivermectin | – | reduced nuclear accumulation of both constructs | – | – | – | reduced nuclear accumulation of both constructs | – | – | inhibitors of IMPα/β1 binding to HIV-1 integrase | reduced the titer to a lesser extent | active against VEEV | anti-HIV-1 activity
